The text below walks through data of ChEMBL document CHEMBL1136246, “Structure activity studies of a novel cytotoxic benzodiazepine” (Bioorg Med Chem Lett, 2003).

The test system of experiment [1] is Ramos. The experiment in a line: Lymphotoxic activity against immortalized Ramos B cells in culture. The conditions noted are these: Homo sapiens. Format: functional, cell-based.
Experiment [2] relates to Ramos. Briefly: Inhibition of Ramos B cells death in the presence of FK506 (1 uM). Format: functional, Homo sapiens.
Experiment [3] relates to Ramos. Briefly: Inhibition of Ramos B cells death in the presence of 20 uM methylating phenol (Compound 20). Format: functional, Homo sapiens.

Turning to `CN1C(=O)C(Cc2cccc(-c3ccccc3)c2)N=C(c2ccc(O)cc2)c2cc(Cl)ccc21` (stereo unspecified), the EC50 – broadly, the concentration needed to bring the measured effect to its halfway point – in the experiment on Ramos [1] was found to be 4 µM. Further, the Inhibition (as a rule, the share of the control response that was lost under treatment) in the experiment with Ramos [2] amounted to 77%; with Ramos [3], 81%.

Compound `Cc1ccc(C)c(CC2N=C(c3ccc(O)cc3)c3cc(Cl)ccc3N(C)C2=O)c1` (stereo unspecified) registered an EC50 in the experiment with Ramos [1] of 7 µM. In addition, the Inhibition in the experiment on Ramos [2] stood at 80%; with Ramos [3] it was 23%.

As for `CN1C(=O)C(Cc2ccc(-c3ccccc3)cc2)N=C(c2ccc(O)cc2)c2cc(Cl)ccc21` (stereo unspecified), it took 7 µM to reach a half-maximal effect with Ramos [1] (EC50). In addition, the Inhibition with Ramos [2] was 74%; in the experiment with Ramos [3] it was 69%.

In turn, `CN1C(=O)C(Cc2cccc3ccccc23)N=C(c2ccc(O)cc2)c2cc(Cl)ccc21` (stereo unspecified) returned an EC50 in the experiment on Ramos [1] of 5 µM. For the same compound, the Inhibition in the experiment with Ramos [2] came to 72%; in the experiment with Ramos [3], 67%.

Turning to `CN1C(=O)C(Cc2ccc(F)c(F)c2)N=C(c2ccc(O)cc2)c2cc(Cl)ccc21` (stereo unspecified), in the experiment on Ramos [1], the midpoint of the response, the EC50, lay at 10 µM. The Inhibition with Ramos [2] is 59%; with Ramos [3] it was 0%.

In the experiment on Ramos [1], `CN1C(=O)C(Cc2ccc3ccccc3c2)N=C(c2cccc(O)c2)c2cc(Cl)ccc21` (stereo unspecified) had an EC50 of 6 µM. The Inhibition with Ramos [2] is 70%; in the experiment on Ramos [3] it was 0%.

Consider `CN1C(=O)C(Cc2cc3ccccc3cn2)N=C(c2ccc(O)cc2)c2cc(Cl)ccc21` (stereo unspecified), for which the response in the experiment with Ramos [1] was half-maximal at 10 µM (EC50). Further, the Inhibition turned out to be 42% in the experiment with Ramos [2] and 0% with Ramos [3].

For the compound `CN1C(=O)C(Cc2ccc3ncccc3c2)N=C(c2ccc(O)cc2)c2cc(Cl)ccc21` (stereo unspecified), in the experiment with Ramos [1], the concentration giving a half-maximal response (EC50) came to 13 µM. The Inhibition with Ramos [2] was found to be 20%; in the experiment on Ramos [3], 0%.

Compound `CN1C(=O)C(Cc2ccc(OC(F)(F)F)cc2)N=C(c2ccc(O)cc2)c2cc(Cl)ccc21` (stereo unspecified) had an EC50 in the experiment on Ramos [1] of 30 µM. For the same compound, the Inhibition with Ramos [2] came to 17%; with Ramos [3], 0%.

`CN1C(=O)C(Cc2cccc(O)c2)N=C(c2ccc(O)cc2)c2cc(Cl)ccc21` (stereo unspecified) displayed an EC50 with Ramos [1] of 22 µM. In addition, the Inhibition with Ramos [2] is given as 14%; in the experiment with Ramos [3], 20%.

On to `CN1C(=O)C(Cc2ccccc2)N=C(c2ccc(O)cc2)c2cc(Cl)ccc21` (stereo unspecified), for which a half-maximal response with Ramos [1] (EC50) required 12 µM. The values for the Inhibition in the experiment with Ramos [2] and with Ramos [3] were 4% and 0%, respectively.

`CN1C(=O)C(Cc2cnc3ccccc3c2)N=C(c2ccc(O)cc2)c2cc(Cl)ccc21` (stereo unspecified): the EC50 in the experiment on Ramos [1] worked out at 11 µM. In addition, the figures for the Inhibition in the experiment on Ramos [2] and in the experiment on Ramos [3] were 39% and 4%, respectively.

In the experiment with Ramos [1], `CN1C(=O)C(Cc2ccc(C(C)(C)C)cc2)N=C(c2ccc(O)cc2)c2cc(Cl)ccc21` (stereo unspecified) came in with a 50% effective concentration (EC50) of 3 µM. The Inhibition is 91% in the experiment with Ramos [2] and 55% with Ramos [3].

In turn, `COc1ccc(C2=NC(Cc3ccc4ccccc4c3)C(=O)N(C)c3ccc(Cl)cc32)cc1` (stereo unspecified) yielded an EC50 in the experiment on Ramos [1] above 80 µM.

For the compound `CN1C(=O)C(Cc2ccc3ccccc3c2)N=C(c2ccc(Cl)cc2)c2cc(Cl)ccc21` (stereo unspecified), the EC50 in the experiment on Ramos [1] is above 80 µM.

In the experiment on Ramos [1], `Cc1cc(C2=NC(Cc3ccc4ccccc4c3)C(=O)N(C)c3ccc(Cl)cc32)ccc1O` (stereo unspecified) gave an EC50 of 3 µM. Also, the Inhibition came out at 78% with Ramos [2] and 87% in the experiment on Ramos [3].

`CN1C(=O)C(Cc2ccc3ccccc3c2)N=C(c2ccc(N=[N+]=[N-])cc2)c2cc(Cl)ccc21` (stereo unspecified) registered an EC50 with Ramos [1] above 80 µM.

In turn, `Cc1ccc(CC2N=C(c3ccc(O)cc3)c3cc(Cl)ccc3N(C)C2=O)cc1C` (stereo unspecified) returned an EC50 in the experiment with Ramos [1] of 7 µM. For the same compound, the Inhibition with Ramos [2] is 78%; in the experiment on Ramos [3], 29%.

On to `CN1C(=O)CN=C(c2ccccc2)c2cc(Cl)ccc21` [DIAZEPAM], for which the EC50 in the experiment with Ramos [1] was above 80 µM.

In turn, `CCC(C)N(C)C(=O)c1cc2ccccc2c(-c2ccccc2Cl)n1` (stereo unspecified) [PK-11195] returned an EC50 in the experiment with Ramos [1] above 80 µM.

`CN1C(=O)CN=C(c2ccc(Cl)cc2)c2cc(Cl)ccc21` [RO-54864] gave an EC50 with Ramos [1] above 80 µM.
